Assay results: patent US10201556B2, “Combination for use in treating diseases or conditions associated with melanoma, or treating diseases or conditions associated with activated B-raf pathway” (InteRNA Technologies B.V., priority 2012, dated 2019)

How the values were obtained:
[1] = system: A375Hu-R1 (vemurafenib resistant clone of A375Hu); assay: Anti-proliferative effect of small molecules, MTS assay; type: cell-based; conditions: Homo sapiens, A375Hu-R1 (A375-R), in vitro acquired resistance, 72 hours
Protocol: (§1) The anti-proliferative effect of small molecules in melanoma cell lines was determined with V600E BRAF inhibitor, vemurafenib (PLX-4032, 51267, Selleck) and MEK inhibitor, selumetinib (AZD-6244, S1008, Selleck). For each cell line optimal growth conditions were determined prior to the experiment. Cells were plated in a 96-well plate at 3000 cells per well (100 uL) and were grown at 37 C, 5% CO2. Small molecule mix (50 uL per well) was made for each concentration in medium. Cells were treated in triplicate 24 hours after plating. After 72 hours medium was replaced and viability was measured with the MTS assay (Promega) according to manufacturer's instructions. Cell viability inhibition is normalized against loading control (0.1% DMSO) and GraphPad Prism was used to fit the curve and calculate GI50 values.
The A375Hu melanoma cell line was used to make a vemurafenib (PLX-4032) resistant sub line. A375Hu cells were plated at low density in 96-well plates and exposed to 1 uM PLX-4032. Cell growth was monitored until clonal growth was observed. Wells with clonal growth (approximately 5%) were replated in a 96-well plate and exposed to 1 uM PLX-4032. The 10 best growing clones were replated in 6-well plates in 1 uM PLX-4032 and the three best growing clones were used for further culturing. Clone number 1 (A375Hu-R1) grew best with 1 uM PLX-4032 and was chosen for additional experiments.

[2] = system: M249 melanoma cell line; assay: as above; type: cell-based; conditions: M249, 72 h, M249, vemurafenib sensitive
Protocol: as §1

[3] = system: A2058 melanoma cell line; assay: as above; type: cell-based; conditions: Homo sapiens, A2058, intrinsic resistance, 72 hours
Protocol: as §1

[4] = system: RPMI-7951 melanoma cell line; assay: as above; type: cell-based; conditions: Homo sapiens
Protocol: as §1

[5] = system: A375Hu melanoma cell line; assay: as above; type: cell-based; conditions: Homo sapiens, A-375, 72 h, A375Hu (A375), vemurafenib sensitive
Protocol: as §1

[6] = system: M249-R4 melanoma cell line; assay: as above; type: cell-based; conditions: M249-R4 (M249-AR4), in vitro acquired resistance, 72 hours
Protocol: as §1

[7] = system: BRAFV600E mutant melanoma cell lines SKMEL-28, SKMEL-57 and M249; assay: MTS cell viability after miR-3157 mimic transfection, vemurafenib-sensitive lines; type: cell-based; conditions: SKMEL-28, SKMEL-57, M249; 10 nM mimic, 72 hours (FIG. 11a)
Protocol: (§2) miR-3157 broadly affects melanoma cell line viability. Melanoma cell lines were divided into those that have the BRAFV600E mutation and are sensitive (a), intrinsically resistant (b) or acquired resistance to vemurafenib (c). Cell lines were transfected in triplicate with control miRNA or miR-3157 mimics (10 nM; n=2). Mock is transfectant only. Cell viability was determined using the MTS assay and calculated relative to mock transfected cells.
(§3) A375 cells were obtained from the Hubrecht Institute (Utrecht, The Netherlands); SKMEL-28, A2058 and RPMI-7951 were from the ATCC; SKMEL-57 was a gift from Dr. Patricia Groenen (Radboud University Nijmegen Medical Centre, The Netherlands); for cell line characteristics of M249, M249-AR4, M233 and M376 see (Atefi et al. 2011). A375-R, with in vitro acquired resistance to vemurafenib, was established in our lab by clonal selection of cells continually exposed to 1 μM vemurafenib. A375, A375-R, SKMEL-28, A2058 and SKMEL-57 were grown in DMEM GlutaMAX™-I (Gibco®), all other cell lines in RPMI-1640 (Gibco®). Media was supplemented with 10% FBS (Sigma), and cells were maintained in a humidified 37° C. incubator (Thermo Scientific) with 5% CO2. […]
(§4) Cells were seeded in 96-well plates and transfected the next day. […] Read-out was performed at 490 nm on a Multiskan FC plate reader (Thermo Scientific) at 72 hours post transfection.

[8] = system: ERK1/MAPK3, RRM2, AURKB, CDK4, BCL2, BIRC5 mRNA; assay: Quantitative real-time PCR of mRNA levels in A375 cells; type: cell-based, human; conditions: 10 nM mimic, compared to miRNA control (FIG. 12b)
Protocol: Total RNA was isolated using TRI Reagent® (Sigma). To detect miR-3157 and U6 (small nuclear RNA RNU6-1) by qPCR, first 100 ng total RNA was mixed with 50 nM of a miR-3157 specific stem-loop (SL) primer or a U6 Reverse Transcriptase (RT) primer (Table 9), 33 μM dNTPs and 50 units M-MLV Reverse Transcriptase (RT) enzyme (Promega) in a 15 μl SL-RT reaction, and incubated for 30 min at 16° C., 30 min at 42° C. and 5 min at 85° C. For cDNA synthesis of total RNA, 1 μg RNA was mixed with 50 units M-MLV RT enzyme, 0.4 μg random hexamers (Qiagen) and 1 mM dNTPs in a 20 μl cDNA synthesis reaction, and incubated 10 min at 25° C., 120 min at 37° C. and 5 min at 85° C. For miR-3157 and U6 quantification, one μl SL-RT product was used for quantification in a single 20 μl qPCR reaction, using iQ™ SYBR® Green (Bio-Rad), and 0.625 μM forward and reverse primer (Table 9). The PCR protocol was 5 min 95° C. (1×), 10 s 95° C./20 s 60° C./10 s 72° C. (×45). For mRNA quantification, 1 μl cDNA was incubated with 1.25 μM gene-specific forward and reverse primers (Table 10) and iQ™ SYBR® Green in a 20 μl qPCR reaction for 5 min at 95° C. (1×), 15 s 95° C./30 s 60° C./30 s 72° C. (×45). PCR amplification was performed on a CFX96 Touch™ Real-Time PCR Detection System (Bio-Rad).

[9] = system: A375-R, M249-AR4 and M376; assay: MTS cell viability after miR-3157 mimic transfection, acquired resistance lines; type: cell-based; conditions: 10 nM mimic, 72 hours (FIG. 11c)
Protocol: as §2, §3, §4

Row | Compound | GI50 [1] | GI50 [2] | GI50 [3] | cytotoxicity at 3 µM ([4]; RPMI-7951, 3 μM vemurafenib (FIG. 15a), read-out: reduction of cell viability) | GI50 ([4]; RPMI-7951, intrinsic resistance, 72 hours, MTS) | GI50 [5] | GI50 [6] | cell viability relative to mock transfected cells [7] | mRNA levels of ERK1, RRM2, AURKB, CDK4, BCL2, BIRC5 by qPCR [8] | cell viability relative to mock transfected cells [9]
1 | CCCS(=O)(=O)Nc1ccc(F)c(C(=O)c2c[nH]c3ncc(-c4ccc(Cl)cc4)cc23)c1F [Vemurafenib, N-(3-{[5-(4-chlorophenyl)-1H-pyrrolo[2,3-b]pyridin-3-yl]carbonyl}-2,4-difluorophenyl)propane-1-sulfonamide] | > 10 µM | ~0.3 µM | > 10 µM | ~20% | > 10 µM | ~0.1 µM | > 10 µM |  |  | 
2 | hsa-miR-3157-5p: mature miRNA mimic, SEQ ID NO 6 UUCAGCCAGGCUAGUGCAGUCU (listed as RNA, chemistry not given here) |  |  |  |  |  |  |  | strongly reduced cell viability | reduced mRNA levels | reduced viability
